This passage reports Activity results from ChEMBL document CHEMBL5678818, “Discovery of potent SOS1 inhibitors that block RAS activation via disruption of the RAS-SOS1 interaction” (Proc Natl Acad Sci U S A, 2019).

SMILES strings stand for the structures.

For experiment [1], the target named is T1, Mitogen-activated protein kinase kinase kinase 5 (Homo sapiens) (UniProt Q99683).
T1 sequence (whole entry): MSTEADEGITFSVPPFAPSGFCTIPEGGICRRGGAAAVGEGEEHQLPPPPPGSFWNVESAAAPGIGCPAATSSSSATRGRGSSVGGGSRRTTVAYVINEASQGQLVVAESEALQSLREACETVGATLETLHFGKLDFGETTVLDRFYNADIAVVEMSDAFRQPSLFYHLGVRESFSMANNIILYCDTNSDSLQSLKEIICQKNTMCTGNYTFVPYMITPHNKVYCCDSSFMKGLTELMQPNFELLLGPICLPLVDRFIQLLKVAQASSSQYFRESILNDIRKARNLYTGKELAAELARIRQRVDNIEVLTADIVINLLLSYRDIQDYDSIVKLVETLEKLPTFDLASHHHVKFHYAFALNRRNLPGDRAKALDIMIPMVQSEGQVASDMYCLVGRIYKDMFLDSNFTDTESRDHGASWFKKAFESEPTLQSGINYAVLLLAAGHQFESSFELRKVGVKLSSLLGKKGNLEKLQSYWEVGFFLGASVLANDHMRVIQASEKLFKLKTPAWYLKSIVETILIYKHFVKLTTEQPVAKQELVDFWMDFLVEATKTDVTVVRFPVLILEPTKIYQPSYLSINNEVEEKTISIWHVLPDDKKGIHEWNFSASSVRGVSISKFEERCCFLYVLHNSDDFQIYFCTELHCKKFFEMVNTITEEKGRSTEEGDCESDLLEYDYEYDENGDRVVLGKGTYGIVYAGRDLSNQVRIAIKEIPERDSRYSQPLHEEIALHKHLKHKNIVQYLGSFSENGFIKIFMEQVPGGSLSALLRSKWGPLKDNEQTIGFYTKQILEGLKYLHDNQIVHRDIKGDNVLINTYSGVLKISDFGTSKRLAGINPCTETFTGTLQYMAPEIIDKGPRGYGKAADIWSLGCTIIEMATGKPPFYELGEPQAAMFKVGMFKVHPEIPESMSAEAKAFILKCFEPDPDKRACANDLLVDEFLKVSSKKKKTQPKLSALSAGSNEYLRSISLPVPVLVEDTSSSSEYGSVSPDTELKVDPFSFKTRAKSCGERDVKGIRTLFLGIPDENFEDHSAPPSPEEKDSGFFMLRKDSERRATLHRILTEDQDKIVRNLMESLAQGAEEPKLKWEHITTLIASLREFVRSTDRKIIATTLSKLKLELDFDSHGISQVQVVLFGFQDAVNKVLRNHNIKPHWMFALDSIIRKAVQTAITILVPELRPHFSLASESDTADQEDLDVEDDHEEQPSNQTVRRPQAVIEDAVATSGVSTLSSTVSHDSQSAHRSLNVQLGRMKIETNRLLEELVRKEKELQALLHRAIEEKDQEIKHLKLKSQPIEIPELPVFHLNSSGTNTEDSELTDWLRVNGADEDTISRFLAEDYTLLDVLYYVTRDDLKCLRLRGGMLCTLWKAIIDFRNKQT
As to the kind of experiment: Inhibition of ASK1 (unknown origin) assessed as residual activity at 100 nM by KINOMEscan analysis relative to control.

Experiment [2] concerns the target Cyclin-dependent kinase 5 (Homo sapiens) (UniProt Q00535). As to the kind of experiment: Inhibition of CDK5 (unknown origin) assessed as residual activity at 100 nM by KINOMEscan analysis relative to control.
Experiment [3] deals with Dual specificity protein kinase CLK3 (Homo sapiens) (UniProt P49761). As to the kind of experiment: Inhibition of CLK3 (unknown origin) assessed as residual activity at 100 nM by KINOMEscan analysis relative to control.
Chain of Dual specificity protein kinase CLK3 (Homo sapiens) (P49761 whole entry, looked up, canonical isoform): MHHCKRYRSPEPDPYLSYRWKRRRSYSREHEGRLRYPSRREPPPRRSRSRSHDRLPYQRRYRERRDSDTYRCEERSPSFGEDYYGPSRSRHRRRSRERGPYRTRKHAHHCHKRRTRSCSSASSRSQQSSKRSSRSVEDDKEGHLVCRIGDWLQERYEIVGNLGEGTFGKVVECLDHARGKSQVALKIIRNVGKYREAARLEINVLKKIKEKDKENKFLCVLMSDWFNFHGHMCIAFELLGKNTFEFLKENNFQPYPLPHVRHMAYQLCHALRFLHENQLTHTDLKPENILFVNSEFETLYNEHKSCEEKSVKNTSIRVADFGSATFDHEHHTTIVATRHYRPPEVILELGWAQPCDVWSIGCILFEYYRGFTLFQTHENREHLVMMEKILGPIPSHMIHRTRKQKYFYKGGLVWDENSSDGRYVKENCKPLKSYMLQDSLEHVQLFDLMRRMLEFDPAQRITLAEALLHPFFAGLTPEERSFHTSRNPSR
Experiment [4] concerns the target T2, Casein kinase I isoform alpha-like (Homo sapiens) (UniProt Q8N752).
T2 sequence (whole entry): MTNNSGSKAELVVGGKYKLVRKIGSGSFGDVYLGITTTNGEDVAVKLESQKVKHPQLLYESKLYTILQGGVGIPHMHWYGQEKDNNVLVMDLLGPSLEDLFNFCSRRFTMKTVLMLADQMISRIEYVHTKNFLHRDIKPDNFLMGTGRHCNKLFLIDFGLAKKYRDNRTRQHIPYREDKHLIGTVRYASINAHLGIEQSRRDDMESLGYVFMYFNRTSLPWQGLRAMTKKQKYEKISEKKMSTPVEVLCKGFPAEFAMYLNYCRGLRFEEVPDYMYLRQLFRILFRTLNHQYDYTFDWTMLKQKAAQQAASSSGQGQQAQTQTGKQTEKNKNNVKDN
As to the kind of experiment: Inhibition of CSNK1A1L (unknown origin) assessed as residual activity at 100 nM by KINOMEscan analysis relative to control.

Experiment [5] addresses Mitogen-activated protein kinase 14 (Homo sapiens) (UniProt Q16539). As to the kind of experiment: Inhibition of p38-alpha (unknown origin) assessed as residual activity at 100 nM by KINOMEscan analysis relative to control.
The subject of experiment [6] is Phosphatidylinositol 4,5-bisphosphate 3-kinase catalytic subunit alpha isoform (Homo sapiens), P42336 [Q546K]. As to the kind of experiment: Inhibition of PIK3CA Q546K mutant (unknown origin) assessed as residual activity at 100 nM by KINOMEscan analysis relative to control.
For experiment [7], the target named is Phosphatidylinositol 4,5-bisphosphate 3-kinase catalytic subunit gamma isoform (Homo sapiens) (UniProt P48736). The experiment can be described thus: Inhibition of PIK3CG (unknown origin) assessed as residual activity at 100 nM by KINOMEscan analysis relative to control.
Chain of Phosphatidylinositol 4,5-bisphosphate 3-kinase catalytic subunit gamma isoform (Homo sapiens) (P48736 whole entry, looked up, canonical isoform): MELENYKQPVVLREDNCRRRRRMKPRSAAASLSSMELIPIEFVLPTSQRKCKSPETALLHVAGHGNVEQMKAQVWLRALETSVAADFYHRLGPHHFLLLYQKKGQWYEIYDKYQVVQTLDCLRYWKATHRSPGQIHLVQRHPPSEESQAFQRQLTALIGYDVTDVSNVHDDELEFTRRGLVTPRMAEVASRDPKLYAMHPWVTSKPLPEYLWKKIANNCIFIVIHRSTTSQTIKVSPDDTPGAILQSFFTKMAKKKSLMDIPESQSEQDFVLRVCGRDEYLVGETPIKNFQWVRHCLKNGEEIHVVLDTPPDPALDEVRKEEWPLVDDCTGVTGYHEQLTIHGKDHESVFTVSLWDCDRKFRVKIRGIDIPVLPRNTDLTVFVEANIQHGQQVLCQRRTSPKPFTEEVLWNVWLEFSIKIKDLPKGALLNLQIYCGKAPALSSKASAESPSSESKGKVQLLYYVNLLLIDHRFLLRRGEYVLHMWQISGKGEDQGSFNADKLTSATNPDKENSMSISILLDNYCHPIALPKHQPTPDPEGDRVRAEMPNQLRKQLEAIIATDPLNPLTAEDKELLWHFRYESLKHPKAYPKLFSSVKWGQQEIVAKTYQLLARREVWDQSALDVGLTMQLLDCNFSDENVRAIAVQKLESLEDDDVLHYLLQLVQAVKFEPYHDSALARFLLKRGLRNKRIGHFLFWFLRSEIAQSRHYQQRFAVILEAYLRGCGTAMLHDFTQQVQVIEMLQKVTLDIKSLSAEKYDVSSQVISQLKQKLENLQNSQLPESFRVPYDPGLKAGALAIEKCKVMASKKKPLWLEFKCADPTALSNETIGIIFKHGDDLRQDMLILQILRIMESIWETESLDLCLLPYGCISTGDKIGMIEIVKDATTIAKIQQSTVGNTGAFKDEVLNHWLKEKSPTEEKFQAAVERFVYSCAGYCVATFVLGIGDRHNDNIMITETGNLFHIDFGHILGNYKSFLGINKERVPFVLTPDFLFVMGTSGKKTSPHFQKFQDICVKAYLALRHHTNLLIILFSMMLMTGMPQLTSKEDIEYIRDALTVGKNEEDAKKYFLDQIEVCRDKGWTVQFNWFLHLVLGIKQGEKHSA

Chain of Mitogen-activated protein kinase 14 (Homo sapiens) (Q16539 whole entry, canonical isoform): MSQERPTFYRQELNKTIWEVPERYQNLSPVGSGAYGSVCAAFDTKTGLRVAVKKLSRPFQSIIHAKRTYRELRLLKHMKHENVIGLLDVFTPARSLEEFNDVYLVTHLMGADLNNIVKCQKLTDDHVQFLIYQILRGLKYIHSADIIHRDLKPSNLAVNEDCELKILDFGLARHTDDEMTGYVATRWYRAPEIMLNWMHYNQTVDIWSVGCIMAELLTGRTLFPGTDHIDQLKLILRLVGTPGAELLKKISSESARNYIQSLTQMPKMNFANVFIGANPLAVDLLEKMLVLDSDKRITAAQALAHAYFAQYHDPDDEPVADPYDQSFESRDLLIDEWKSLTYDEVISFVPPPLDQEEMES
Chain of Cyclin-dependent kinase 5 (Homo sapiens) (Q00535 whole entry, looked up): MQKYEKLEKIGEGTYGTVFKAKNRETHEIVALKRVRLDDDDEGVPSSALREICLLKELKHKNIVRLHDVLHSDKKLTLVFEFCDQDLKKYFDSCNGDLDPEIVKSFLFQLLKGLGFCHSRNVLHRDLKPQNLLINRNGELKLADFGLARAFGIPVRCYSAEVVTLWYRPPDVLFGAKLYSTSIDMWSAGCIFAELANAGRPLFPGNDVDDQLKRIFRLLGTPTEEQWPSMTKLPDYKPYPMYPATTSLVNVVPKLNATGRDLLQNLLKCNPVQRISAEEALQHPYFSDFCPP
Chain of Phosphatidylinositol 4,5-bisphosphate 3-kinase catalytic subunit alpha isoform (Homo sapiens), P42336 [Q546K] (P42336 whole entry Q546K, canonical isoform): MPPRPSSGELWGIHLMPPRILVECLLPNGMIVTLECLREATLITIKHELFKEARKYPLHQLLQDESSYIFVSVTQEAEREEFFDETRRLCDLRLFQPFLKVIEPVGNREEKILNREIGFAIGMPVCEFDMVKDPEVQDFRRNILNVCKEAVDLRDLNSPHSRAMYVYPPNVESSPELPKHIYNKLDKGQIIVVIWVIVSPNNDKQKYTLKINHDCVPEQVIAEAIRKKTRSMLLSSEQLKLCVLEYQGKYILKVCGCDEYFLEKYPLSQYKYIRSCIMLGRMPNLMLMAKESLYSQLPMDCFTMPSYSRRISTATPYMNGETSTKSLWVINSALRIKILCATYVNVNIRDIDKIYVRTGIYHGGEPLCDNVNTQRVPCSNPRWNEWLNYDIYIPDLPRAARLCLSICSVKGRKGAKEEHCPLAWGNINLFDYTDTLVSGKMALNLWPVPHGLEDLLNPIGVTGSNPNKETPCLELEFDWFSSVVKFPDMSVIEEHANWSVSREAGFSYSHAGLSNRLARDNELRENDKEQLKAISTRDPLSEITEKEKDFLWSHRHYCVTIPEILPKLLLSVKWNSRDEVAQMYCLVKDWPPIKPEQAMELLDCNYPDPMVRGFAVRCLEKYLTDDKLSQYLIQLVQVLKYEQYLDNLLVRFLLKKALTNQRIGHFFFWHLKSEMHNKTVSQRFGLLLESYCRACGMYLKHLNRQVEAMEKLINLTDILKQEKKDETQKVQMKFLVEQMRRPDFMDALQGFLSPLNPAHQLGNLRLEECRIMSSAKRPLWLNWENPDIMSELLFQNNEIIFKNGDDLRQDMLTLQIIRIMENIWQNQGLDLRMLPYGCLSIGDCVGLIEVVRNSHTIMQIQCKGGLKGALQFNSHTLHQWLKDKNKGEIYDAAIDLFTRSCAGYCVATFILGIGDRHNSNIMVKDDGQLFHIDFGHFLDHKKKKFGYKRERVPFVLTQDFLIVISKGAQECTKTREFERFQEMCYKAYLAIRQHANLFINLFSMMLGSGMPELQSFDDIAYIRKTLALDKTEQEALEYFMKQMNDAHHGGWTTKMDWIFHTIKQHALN

Regarding `COc1cc2ncnc(N[C@H](C)c3cccc4ccccc34)c2cc1OC`, the Activity in experiment [1] was determined as 70%; in experiment [2], 83%; in experiment [3], 92%; in experiment [4], 100%; in experiment [5], 89%; in experiment [6], 70%. Moreover, the Activity in experiment [7] was 78%.
